US9340819B2, “Method for detecting the presence of carbapenemase-producing bacteria in a sample” (priority 2011, dated 2016)
Converted amounts (≈) assume the structure as drawn.

How the values were obtained:
P. putida = assay: Susceptibility testing by Etest on Mueller-Hinton agar (Example 3); type: cell-based; settings: Pseudomonas putida
Experimental: (§1) Susceptibility testing was performed using the Etest® (bioMérieux; La Balmes-les-Grottes, France) on Mueller-Hinton agar plates (Becton Dickinson, Le Pont de Chaix, France) at 37° C. and results were recorded according to US guidelines (CLSI), as updated in 2012. The breakpoints for imipenem, meropenem and doripenem are as follows; susceptibility (S)≦2, and resistance (R)≧8 μg/ml.

P. fluorescens = assay: as above; type: cell-based; settings: Pseudomonas fluorescens
Experimental: as §1

P. stutzeri = assay: as above; type: cell-based; settings: Stutzerimonas stutzeri
Experimental: as §1

E. cloacae = assay: MIC of carbapenem by Etest (Example 2); type: cell-based, Enterobacter cloacae
Experimental: (§2) All strains had previously been characterized for their β-lactamase content at the molecular level. Minimum inhibitory concentration of carbapenem were determined using the Etest® (AB bioMérieux, Solna, Sweden) and results were recorded according to US guidelines (CLSI), as updated in 2011.

K. pneumoniae = assay: MIC of carbapenem by Etest (Example 2); type: cell-based, Klebsiella pneumoniae
Experimental: as §2

E. aerogenes = assay: MIC of carbapenem by Etest (Example 2); type: cell-based, Enterobacter aerogenes
Experimental: as §2

P. rettgeri = assay: MIC of carbapenem by Etest (Example 2); type: cell-based, Proteus rettgeri
Experimental: as §2

M. morganii = assay: MIC of carbapenem by Etest (Example 2); type: cell-based, Morganella morganii; settings: Plasmid mediated AmpC or chromosomal AmpC + decreased membrane permeability; M. morganii Overexpressed cephalosporinase, n=2
Experimental: as §2

Salmonella spp. = assay: MIC of carbapenem by Etest (Example 2); type: cell-based; settings: Salmonella spp. KPC-2, n=1
Experimental: as §2

K. ozonae = assay: MIC of carbapenem by Etest (Example 2); type: cell-based; settings: K. ozonae KPC-3, n=1
Experimental: as §2

E. sakazaki = assay: MIC of carbapenem by Etest (Example 2); type: cell-based; settings: ESBL + decreased membrane permeability; E. sakazaki CTX-M-15, n=1
Experimental: as §2

C. freundii = assay: MIC of carbapenem by Etest (Example 2); type: cell-based, Citrobacter freundii
Experimental: as §2

E. asburiae = assay: MIC of carbapenem by Etest (Example 2); type: cell-based, Enterobacter asburiae; settings: E. asburiae IMI-2, n=1
Experimental: as §2

P. stuartii = assay: MIC of carbapenem by Etest (Example 2); type: cell-based, Providencia stuartii; settings: P. stuartii NDM-1, n=1
Experimental: as §2

S. marcescens = assay: MIC of carbapenem by Etest (Example 2); type: cell-based, Serratia marcescens
Experimental: as §2

P. mirabilis = assay: MIC of carbapenem by Etest (Example 2); type: cell-based, Proteus mirabilis; settings: Plasmid mediated AmpC or chromosomal AmpC + decreased membrane permeability; P. mirabilis ACC-1, n=1
Experimental: as §2

E. coli = assay: MIC of carbapenem by Etest (Example 2); type: cell-based, Escherichia coli
Experimental: as §2

Structure (SMILES): C[C@@H](O)[C@H]1C(=O)N2C(C(=O)O)=C(S[C@@H]3CN[C@H](C(=O)N(C)C)C3)[C@H](C)[C@H]12 [MER, meropenem]
- MIC (P. putida; CIP55, P. putida CIP 55-5, wild type, none): 3 ng/mL (≈ 0.00782 µM)
- MIC (P. putida; P. putida 9335, VIM-2): > 32 ng/mL
- MIC (P. putida; P. putida NTU 91/99, VIM-2): > 32 ng/mL
- MIC (P. putida; P. putida NTU 92/99, IMP-1): 0.19 ng/mL (≈ 0.000495 µM)
- MIC (P. fluorescens; P. fluorescens COU, VIM-2): > 32 ng/mL
- MIC (P. fluorescens; P. fluorescens, BIC-1): 4 ng/mL (≈ 0.0104 µM)
- MIC (P. stutzeri; P. stutzeri 13, DIM-1): > 32 ng/mL
- MIC (P. stutzeri; P. stutzeri P511503100, VIM-2): > 32 ng/mL
- MIC (P. stutzeri; P. stutzeri PB207, IMP-1): 4 ng/mL (≈ 0.0104 µM)
- MICs range (E. cloacae; E. cloacae GES-5, n=1): >32 mg/L
- MICs range (E. cloacae; E. cloacae IMP-8, n=2): 0.5 to 1 mg/L
- MICs range (E. cloacae; E. cloacae KPC-2, n=7): 0.75 to 16 mg/L
- MICs range (E. cloacae; E. cloacae NDM-1, n=1): 2 mg/L
- MICs range (E. cloacae; E. cloacae NMC-A, n=1): 16 mg/L
- MICs range (E. cloacae; E. cloacae OXA-48, n=3): 0.5 to 1.5 mg/L
- MICs range (E. cloacae; ESBLs, E. cloacae CTX-M-15, n=3): 0.12 mg/L
- MICs range (E. cloacae; ESBLs, E. cloacae VEB-1, n=1): 0.12 mg/L
- MICs range (K. pneumoniae; ESBL + decreased membrane permeability, K. pneumoniae SHV-2a, n=1): 0.38 mg/L
- MICs range (K. pneumoniae; ESBL + decreased membrane permeability, K. pneumoniae SHV-28, n=1): 1 mg/L
- MICs range (K. pneumoniae; ESBLs, K. pneumoniae CTX-M-3, n=1): 0.12 mg/L
- MICs range (K. pneumoniae; ESBLs, K. pneumoniae CTX-M-14, n=1): 0.12 mg/L
- MICs range (K. pneumoniae; ESBLs, K. pneumoniae CTX-M-15, n=3): 0.12 mg/L
- MICs range (K. pneumoniae; K. pneumoniae IMP-1, n=5): 1 to 8 mg/L
- MICs range (K. pneumoniae; K. pneumoniae IMP-8, n=2): 0.5 mg/L
- MICs range (K. pneumoniae; K. pneumoniae KPC-3, n=3): 1 to 8 mg/L
- MICs range (K. pneumoniae; K. pneumoniae NDM-4, n=1): >32 mg/L
- MICs range (K. pneumoniae; K. pneumoniae OXA-181, n=2): 0.5 to 1 mg/L
- MICs range (K. pneumoniae; K. pneumoniae VIM-19, n=1): 4 mg/L
- MICs range (K. pneumoniae; Plasmid mediated AmpC or chromosomal AmpC + decreased membrane permeability, K. pneumoniae DHA-1, n=1): >32 mg/L
- MICs range (K. pneumoniae; Plasmid mediated AmpC or chromosomal AmpC + decreased membrane permeability, K. pneumoniae DHA-2, n=1): 0.12 mg/L
- MICs range (E. aerogenes; E. aerogenes KPC-2, n=1): 8 mg/L
- MICs range (E. aerogenes; Plasmid mediated AmpC or chromosomal AmpC + decreased membrane permeability, E. aerogenes Overexpressed cephalosporinase, n=1): 0.75 mg/L
- MICs range (P. rettgeri; P. rettgeri NDM-1, n=1): 1.5 mg/L
- MICs range (P. rettgeri; P. rettgeri OXA-181, n=1): 2 mg/L
- MICs range (M. morganii): 0.5 mg/L
- MICs range (Salmonella spp.): 0.25 mg/L
- MICs range (K. ozonae): 2 mg/L
- MICs range (E. sakazaki): 0.25 mg/L
- MICs range (C. freundii; C. freundii KPC-2, n=2): 1.5 to 3 mg/L
- MICs range (C. freundii; C. freundii NDM-1, n=1): >32 mg/L
- MICs range (C. freundii; ESBL + decreased membrane permeability, C. freundii TEM-3, n=1): 1 mg/L
- MICs range (E. asburiae): >32 mg/L
- MICs range (P. stuartii): 1.5 mg/L
- MICs range (S. marcescens; S. marcescens IMP-11, n=1): 2 mg/L
- MICs range (S. marcescens; S. marcescens KPC-2, n=2): >32 mg/L
- MICs range (S. marcescens; S. marcescens SME-1, n=1): 12 mg/L
- MICs range (S. marcescens; S. marcescens SME-2, n=1): 12 mg/L
- MICs range (S. marcescens; S. marcescens VIM-2, n=1): >32 mg/L
- MICs range (P. mirabilis): 0.12 mg/L
- MICs range (E. coli; E. coli IMP-1, n=2): 0.5 to 1 mg/L
- MICs range (E. coli; E. coli IMP-8, n=1): 3 mg/L
- MICs range (E. coli; E. coli KPC-2, n=5): 0.5 to 2 mg/L
- MICs range (E. coli; E. coli NDM-1, n=7): 1 to 16 mg/L
- MICs range (E. coli; E. coli OXA-48, n=6): 0.12 to 1 mg/L
- MICs range (E. coli; E. coli VIM-1, n=2): 0.5 to 1 mg/L
- MICs range (E. coli; E. coli VIM-2, n=2): 0.38 to 0.5 mg/L
- MICs range (E. coli; E. coli VIM-19, n=1): 4 mg/L
- MICs range (E. coli; ESBLs, E. coli CTX-M-1, n=1): 0.12 mg/L
- MICs range (E. coli; ESBLs, E. coli CTX-M-3, n=1): 0.12 mg/L
- MICs range (E. coli; ESBLs, E. coli CTX-M-14, n=2): 0.12 mg/L
- MICs range (E. coli; ESBLs, E. coli CTX-M-15, n=2): 0.12 mg/L
- MICs range (E. coli; ESBLs, E. coli VEB-1, n=1): 0.12 mg/L
- MICs range (E. coli; Plasmid mediated AmpC or chromosomal AmpC + decreased membrane permeability, E. coli ACC-1, n=1): 0.12 mg/L
- MICs range (E. coli; Plasmid mediated AmpC or chromosomal AmpC + decreased membrane permeability, E. coli CMY-2, n=1): 0.12 mg/L
- MICs range (E. coli; Plasmid mediated AmpC or chromosomal AmpC + decreased membrane permeability, E. coli CMY-10, n=1): 0.12 mg/L
- MICs range (E. coli; Plasmid mediated AmpC or chromosomal AmpC + decreased membrane permeability, E. coli DHA-1, n=1): 0.12 mg/L
- MICs range (E. coli; Plasmid mediated AmpC or chromosomal AmpC + decreased membrane permeability, E. coli Extended spectrum cephalosporinase, n=1): 0.12 mg/L
- MICs range (E. coli; Plasmid mediated AmpC or chromosomal AmpC + decreased membrane permeability, E. coli Overexpressed cephalosporinase, n=1): 2 mg/L
